Patent US10590070B2, “Compositions and methods for treating and preventing neurodegenerative disorders” (ALZHEON, INC., priority 2015, dated 2020)

Target: T1, recombinant Human β-Amyloid Peptide (1-42) (Homo sapiens, UniProt P05067)
T1 construct: recombinant Human β-Amyloid Peptide (1-42); purchased BioLegend 843801
Assay: Mass spectrometry (MS) binding assay
Conditions: 22 pmol/μL peptide, 1100 pmol/μL compound (50×); for Number of molecules bound to Aβ42: direct infusion Q-TOF MS, stoichiometry of the binding; for Semiquantitative Estimation: semiquantitative evaluation of the binding compared to a blank
Description: Compounds of the invention were screened by mass spectrometry (“MS”) binding assays to assess the ability of compounds to bind to the protein. Approximately 1 mg of the compound was reconstituted in 1 mL of MilliQ water and vortexed vigorously for 2 minutes until completely in solution. The sample was then diluted to create an approximately 2200 pmol/μL solution. One mg of recombinant Human β-Amyloid Peptide (1-42) from BioLegend (99% purity, cat: 843801) was reconstituted in 200 μL of MilliQ water and vortexed vigorously for 2 minutes to solubilize the peptide creating a 5 mg/mL solution. Samples were then diluted to a final concentration 44 pmol/μL prior to mix with drug solution. Samples were then mixed together for a final concentration of 22 pmol/μL (x) for peptide and 1100 pmol/μL for individual compounds (50×). Samples were infused directly in mass specs after adding 50 μL of 10% formic acid in final solution to increase the ionization. The data acquisition was performed using a Waters time of flight mass spectrometer (Q-TOF Micro). The data was acquired using the scanning mode to allow for the detection of the peptide. Samples were infused at room temperature. The mass spectrometer conditions were maintained throughout the study to ensure consistency of the data. The Waters Qtof conditions were as follows: Samples were directly infused into the mass spectrometer at a flow rate of 20 μL/min using in-build Syringe Pump and Hamilton 1 mL Syringe and the acquisition time was kept 2 minutes. Once acquisition of the samples was completed, the raw data was then analyzed using the Water MassLynx 4.1, SCN744. Stoichiometry of the binding was determined and the semiquantitative evaluation of the binding was compared to a blank.

T1 sequence (P05067 672-713 limits assumed): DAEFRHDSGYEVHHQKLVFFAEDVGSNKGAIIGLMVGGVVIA

With `NC1CCC(S(=O)(=O)O)C1` (centres unmarked) [Compound 2005, 3-aminocyclopentane-1-sulfonic acid] the “Number of molecules bound to Aβ42” value was “[+1]” and the “Semiquantitative Estimation” value was “[+]”.
With `CC(C)[C@H](N)C(=O)NC1CCC(S(=O)(=O)O)C1` (stereo partly drawn) [Compound 2010, 3-((S)-2-amino-3-methylbutanamido)cyclopentane-1-sulfonic acid] the “Number of molecules bound to Aβ42” value was “[+2]” and the “Semiquantitative Estimation” value was “[++]”.
In the case of `CC(C)C[C@H](N)C(=O)NC1CCC(S(=O)(=O)O)C1` (stereo partly drawn) [Compound 2011, 3-((S)-2-amino-4-methylpentanamido)cyclopentane-1-sulfonic acid], the “Number of molecules bound to Aβ42” value is reported as “[+1]” and the “Semiquantitative Estimation” value is reported as “[+]”.
For `N[C@@H](CO)C(=O)NC1CCC(S(=O)(=O)O)C1` (some centres unmarked) [Compound 2012], the “Number of molecules bound to Aβ42” value was “[+4]” and the “Semiquantitative Estimation” value was “[++++]”.
With `CS(=O)(=O)CC[C@H](N)C(=O)NC1CCC(S(=O)(=O)O)C1` (stereo partly drawn) [Compound 2014, 3-((S)-2-amino-4-(methylsulfonyl)butanamido)cyclopentane-1-sulfonic acid] the “Number of molecules bound to Aβ42” value was “[+3]” and the “Semiquantitative Estimation” value was “[+++]”.
With `N[C@@H](Cc1ccc(O)cc1)C(=O)NC1CCC(S(=O)(=O)O)C1` (stereo partly drawn) [Compound 2015, 3-((S)-2-amino-3-(4-hydroxyphenyl)propanamido)cyclopentane-1-sulfonic acid] the “Number of molecules bound to Aβ42” value was “[+3]” and the “Semiquantitative Estimation” value was “[+++]”.
In the case of `O=C(N[C@@H](Cc1ccc(O)cc1)C(=O)NC1CCC(S(=O)(=O)O)C1)OCc1ccccc1` (stereo partly drawn) [Compound 2021, 3-((S)-2-(((benzyloxy)carbonyl)amino)-3-(4-hydroxyphenyl)propanamido)cyclopentane-1-sulfonic acid], the “Number of molecules bound to Aβ42” value is reported as “No Binding”.
`CC(C)C[C@H](NC(=O)OCc1ccccc1)C(=O)NC1CCC(S(=O)(=O)O)C1` (stereo partly drawn) [Compound 2024, 3-((S)-2-(((benzyloxy)carbonyl)amino)-4-methylpentanamido)cyclopentane-1-sulfonic acid] was tested, and the “Number of molecules bound to Aβ42” value was “No Binding”.
In the case of `CS(=O)(=O)CC[C@H](NC(=O)OCc1ccccc1)C(=O)NC1CCC(S(=O)(=O)O)C1` (stereo partly drawn) [Compound 2026, 3-((S)-2-(((benzyloxy)carbonyl)amino)-4-(methylsulfonyl)butanamido)cyclopentane-1-sulfonic acid], the “Number of molecules bound to Aβ42” value is reported as “[+2]” and the “Semiquantitative Estimation” value is reported as “[++]”.
For `COC(=O)C1CCC(S(=O)(=O)O)C1` (centres unmarked) [Compound 2028, 3-(Methoxycarbonyl)cyclopentane-1-sulfonic acid], the “Number of molecules bound to Aβ42” value was “[+3]” and the “Semiquantitative Estimation” value was “[+++]”.
In the case of `O=C(O)C1CCC(S(=O)(=O)O)C1` (centres unmarked) [Compound 2029, 3-Sulfocyclopentane-1-carboxylic acid], the “Number of molecules bound to Aβ42” value is reported as “[+3]” and the “Semiquantitative Estimation” value is reported as “[+++]”.
With `O=C(NCc1ccccc1)C1CCC(S(=O)(=O)O)C1` (centres unmarked) [Compound 2030, 3-(benzylcarbamoyl)cyclopentane-1-sulfonic acid] the “Number of molecules bound to Aβ42” value was “[+1]” and the “Semiquantitative Estimation” value was “[+]”.
In the case of `O=C(N[C@@H](Cc1ccccc1)C(=O)O)C1CCC(S(=O)(=O)O)C1` (some centres unmarked) [Compound 2034], the “Number of molecules bound to Aβ42” value is reported as “No Binding”.
In the case of `O=C(N[C@@H](CO)C(=O)O)C1CCC(S(=O)(=O)O)C1` (some centres unmarked) [Compound 2037], the “Number of molecules bound to Aβ42” value is reported as “[+1]” and the “Semiquantitative Estimation” value is reported as “[+]”.
With `O=C(NCc1ccccc1)[C@@H]1C[C@H](S(=O)(=O)O)CN1` [Compound 2055] the “Number of molecules bound to Aβ42” value was “[+4]” and the “Semiquantitative Estimation” value was “[++++]”.
In the case of `O=C([C@@H]1C[C@H](S(=O)(=O)O)CN1)N(CCO)CCO` [Compound 2059], the “Number of molecules bound to Aβ42” value is reported as “[+2]” and the “Semiquantitative Estimation” value is reported as “[++]”.
`C[C@H](NC(=O)[C@@H]1C[C@H](S(=O)(=O)O)CN1)C(=O)O` [Compound 2061] was tested, and the “Number of molecules bound to Aβ42” value was “[+4]” and the “Semiquantitative Estimation” value was “[++++]”.
`O=C(NC1CCNCC1)[C@@H]1C[C@H](S(=O)(=O)O)CN1` [Compound 2077] was tested, and the “Number of molecules bound to Aβ42” value was “[+4]” and the “Semiquantitative Estimation” value was “[++++]”.
In the case of `O=C(NCc1ccccc1)[C@@H]1C[C@@H](S(=O)(=O)O)CN1` [Compound 2083], the “Number of molecules bound to Aβ42” value is reported as “[+2]” and the “Semiquantitative Estimation” value is reported as “[++]”.
With `CNC(=O)[C@@H]1C[C@@H](S(=O)(=O)O)CN1` [Compound 2084] the “Number of molecules bound to Aβ42” value was “[+5]” and the “Semiquantitative Estimation” value was “[+++++]”.
For `CCN(CC)C(=O)[C@@H]1C[C@@H](S(=O)(=O)O)CN1` [Compound 2085], the “Number of molecules bound to Aβ42” value was “[+4]” and the “Semiquantitative Estimation” value was “[++++]”.
`O=C([C@@H]1C[C@@H](S(=O)(=O)O)CN1)N(CCO)CCO` [Compound 2087] was tested, and the “Number of molecules bound to Aβ42” value was “[+4]” and the “Semiquantitative Estimation” value was “[++++]”.
